The source of these data is US6825350B2, “Sulfonamide and sulfamide substituted imidazoquinolines and methods for the treatment of periodontal disease using these and other immune response modifiers” (3M Innovative Properties Company, priority 1999, dated 2004).

One assay relates to interferon (α). The assay is described as follows: Cytokine induction in human cells: interferon (α) by ELISA. To be noted: human PBMCs, 18 to 24 hours incubation, ELISA of culture supernatant, read-out: Lowest Effective Concentration (μM) Interferon. The assay is classed as cell-based.
The subject of assay [1] is tumor necrosis factor (α). The assay is described as follows: Cytokine induction in human cells: tumor necrosis factor (α) by ELISA. The assay is classed as cell-based. To be noted: human PBMCs, 18 to 24 hours incubation, ELISA of culture supernatant, read-out: Lowest Effective Concentration (μM) Tumor Necrosis Factor.

SMILES strings stand for the structures. Counter-ions that a name gives are not always drawn. Like-named read-outs stand apart in the source and are kept apart here.

With `CCCCc1nc2c(N)nc3ccccc3c2n1CCCCNS(=O)(=O)c1ccccc1Br` [Example 78], the minimal effective concentration with interferon (α) (Homo sapiens, PBMC) came out at 0.001 µM; in assay [1] (Homo sapiens, PBMC), 0.1 µM.

Take `CCCCc1nc2c(N)nc3ccccc3c2n1CCCCNS(=O)(=O)C(F)(F)F` [Example 53]: the minimal effective concentration in the assay on interferon (α) (Homo sapiens, PBMC) was found to be 0.01 µM; in assay [1] (Homo sapiens, PBMC), 3.33 µM.

As for `CCCCc1nc2c(N)nc3c(c2n1CCCCNS(=O)(=O)N(C)C)CCCC3` [Example 220], the minimal effective concentration with interferon (α) (Homo sapiens, PBMC) is 0.0001 µM; in assay [1] (Homo sapiens, PBMC), 1 µM.

In the case of `COCCc1nc2c(N)nc3c(c2n1CCCCNS(=O)(=O)N(C)C)CCCC3` [Example 221], the minimal effective concentration in the assay with interferon (α) (Homo sapiens, PBMC) is 0.0001 µM; in assay [1] (Homo sapiens, PBMC) it was 1 µM.

Regarding `COCCc1nc2c(N)nc3ccccc3c2n1CCCCNS(=O)(=O)c1cccc2c(N(C)C)cccc12` [Example 114], the minimal effective concentration with interferon (α) (Homo sapiens, PBMC) was 0.01 µM; in assay [1] (Homo sapiens, PBMC) it was more than 10 µM.

Consider `CCCCc1nc2c(N)nc3ccccc3c2n1CCCCNS(=O)(=O)c1cc(Br)ccc1OC` [Example 105], for which the values for the minimal effective concentration (in the assay with interferon (α); in assay [1]) were 1 µM and 10 µM, respectively.

For `COCCc1nc2c(N)nc3ccccc3c2n1CCCCN(C)S(=O)(=O)c1c(C)noc1C` [Example 215, N-[4-(4-Amino-2-(2-methoxyethyl)-1H-imidazo[4,5-c]quinolin-1-yl)butyl]-N-methyl-3,5-dimethylisooxazolo-4-sulfonamide Trifluoroacetate], the minimal effective concentration in the assay on interferon (α) (Homo sapiens, PBMC) came out at 0.01 µM; in assay [1] (Homo sapiens, PBMC), 1 µM.

Take `CCCCc1nc2c(N)nc3ccccc3c2n1CCCCNS(=O)(=O)c1cccc([N+](=O)[O-])c1` [Example 83]: the minimal effective concentration in the assay on interferon (α) (Homo sapiens, PBMC) amounted to 0.001 µM; in assay [1] (Homo sapiens, PBMC), 1 µM.

Take `Nc1nc2c(c3c1ncn3CCCCNS(=O)(=O)c1ccc(I)cc1)CCCC2` [Example 61]: the minimal effective concentration is 3.33 µM with interferon (α) (Homo sapiens, PBMC) and more than 30 µM in assay [1] (Homo sapiens, PBMC).

Regarding `CCCCc1nc2c(N)nc3ccccc3c2n1CCCCNS(=O)(=O)c1ccc(C(C)(C)C)cc1` [Example 47], the minimal effective concentration in the assay on interferon (α) (Homo sapiens, PBMC) was 0.37 µM; in assay [1] (Homo sapiens, PBMC) it was more than 30 µM.

On to `CCCCc1nc2c(N)nc3ccccc3c2n1CCNS(=O)(=O)c1ccccc1` [Example 20], for which the minimal effective concentration was determined as 0.12 µM with interferon (α) (Homo sapiens, PBMC) and 3.33 µM in assay [1] (Homo sapiens, PBMC).

As for `COCCc1nc2c(N)nc3c(c2n1CCCCNS(=O)(=O)c1ccccc1)CCCC3` [Example 210], the minimal effective concentration in the assay with interferon (α) (Homo sapiens, PBMC) was 0.0001 µM; in assay [1] (Homo sapiens, PBMC), 1 µM.

With `CC(C)(C)c1ccc(S(=O)(=O)NCCCCn2cnc3c(N)nc4c(c32)CCCC4)cc1` [Example 62], the minimal effective concentration in the assay with interferon (α) (Homo sapiens, PBMC) is more than 30 µM; in assay [1] (Homo sapiens, PBMC) it was more than 30 µM.

With `CCCCc1nc2c(N)nc3ccccc3c2n1CCNS(=O)(=O)CCC` [Example 17], the minimal effective concentration with interferon (α) (Homo sapiens, PBMC) was 1.11 µM; in assay [1] (Homo sapiens, PBMC) it was 3.33 µM.

On to `CCCCc1ccc(S(=O)(=O)NCCCCn2c(CCCC)nc3c(N)nc4ccccc4c32)cc1` [Example 98], for which the minimal effective concentration in the assay with interferon (α) (Homo sapiens, PBMC) was 1 µM; in assay [1] (Homo sapiens, PBMC), more than 10 µM.

As to `COCCc1nc2c(N)nc3ccccc3c2n1CCCCNS(=O)(=O)c1ccc(Br)cc1` [Example 152], the minimal effective concentration in the assay on interferon (α) (Homo sapiens, PBMC) was 0.0001 µM; in assay [1] (Homo sapiens, PBMC), 10 µM.

Take `COCCc1nc2c(N)nc3ccccc3c2n1CCCCNS(=O)(=O)c1ccc(Cl)s1` [Example 131]: the minimal effective concentration in the assay on interferon (α) (Homo sapiens, PBMC) amounted to 0.0001 µM; in assay [1] (Homo sapiens, PBMC), 1 µM.

As to `CCCCc1nc2c(N)nc3ccccc3c2n1CCNS(=O)(=O)c1ccc(C(C)(C)C)cc1` [Example 25], the minimal effective concentration was 3.33 µM with interferon (α) (Homo sapiens, PBMC) and more than 30 µM in assay [1] (Homo sapiens, PBMC).

For the compound `CN(C)c1cccc2c(S(=O)(=O)NCCCCn3cnc4c(N)nc5c(c43)CCCC5)cccc12` [Example 71], the minimal effective concentration with interferon (α) (Homo sapiens, PBMC) was more than 30 µM; in assay [1] (Homo sapiens, PBMC), 30 µM.

As for `CCCCc1nc2c(N)nc3ccccc3c2n1CCCCNS(=O)(=O)CCCCl` [Example 82], the minimal effective concentration worked out at 0.001 µM in the assay with interferon (α) (Homo sapiens, PBMC) and 1 µM in assay [1] (Homo sapiens, PBMC).

Turning to `CCCCc1nc2c(N)nc3ccccc3c2n1CCCCNS(=O)(=O)CCCC` [Example 74], the minimal effective concentration came out at 0.001 µM in the assay with interferon (α) (Homo sapiens, PBMC) and 0.01 µM in assay [1] (Homo sapiens, PBMC).

Take `COc1ccc(Br)cc1S(=O)(=O)NCCCCn1cnc2c(N)nc3c(c21)CCCC3` [Example 66]: the minimal effective concentration in the assay with interferon (α) (Homo sapiens, PBMC) is more than 30 µM; in assay [1] (Homo sapiens, PBMC) it was 30 µM.

`CCCCc1nc2c(N)nc3ccccc3c2n1CCCCNS(=O)(=O)c1ccc(C)c([N+](=O)[O-])c1` [Example 97]: the minimal effective concentration with interferon (α) (Homo sapiens, PBMC) is 0.1 µM; in assay [1] (Homo sapiens, PBMC), 10 µM.

Regarding `CCCCc1nc2c(N)nc3ccccc3c2n1CCCCNS(=O)(=O)c1ccc(F)cc1` [Example 87], the minimal effective concentration stood at 0.001 µM in the assay on interferon (α) (Homo sapiens, PBMC) and 1 µM in assay [1] (Homo sapiens, PBMC).

As to `CCOCc1nc2c(N)nc3ccccc3c2n1CCNS(=O)(=O)c1cccc2c(N(C)C)cccc12` [Example 110], the minimal effective concentration with interferon (α) (Homo sapiens, PBMC) is 10 µM; in assay [1] (Homo sapiens, PBMC), more than 10 µM.

Regarding `CCCCc1nc2c(N)nc3ccccc3c2n1CCCCNS(=O)(=O)c1sc(NC(C)=O)nc1C` [Example 77], the minimal effective concentration was 0.001 µM in the assay on interferon (α) (Homo sapiens, PBMC) and 1 µM in assay [1] (Homo sapiens, PBMC).

Take `CCCS(=O)(=O)NCCCCn1cnc2c(N)nc3c(c21)CCCC3` [Example 54]: the minimal effective concentration in the assay with interferon (α) (Homo sapiens, PBMC) is 10 µM; in assay [1] (Homo sapiens, PBMC), more than 30 µM.

In the case of `CCCS(=O)(=O)NCCCCn1c(CCOC)nc2c(N)nc3c(c21)CCCC3` [Example 208], the minimal effective concentration is 0.0001 µM with interferon (α) (Homo sapiens, PBMC) and 1 µM in assay [1] (Homo sapiens, PBMC).

In the case of `CCCCc1nc2c(N)nc3ccccc3c2n1CCCCNS(=O)(=O)c1c(F)cccc1F` [Example 93], the minimal effective concentration in the assay on interferon (α) (Homo sapiens, PBMC) came to 0.001 µM; in assay [1] (Homo sapiens, PBMC) it was 0.1 µM.

Regarding `COCCc1nc2c(N)nc3ccccc3c2n1CCCCNS(=O)(=O)N1CCCC1` [Example 229], the minimal effective concentration with interferon (α) (Homo sapiens, PBMC) came out at 0.0001 µM; in assay [1] (Homo sapiens, PBMC), 0.1 µM.

Take `CCCCc1nc2c(N)nc3ccccc3c2n1CCCCNS(=O)(=O)c1cc(F)ccc1C` [Example 106]: the minimal effective concentration with interferon (α) (Homo sapiens, PBMC) is 1 µM; in assay [1] (Homo sapiens, PBMC) it was 1 µM.

Regarding `Nc1nc2c(c3c1ncn3CCCCNS(=O)(=O)c1ccccc1)CCCC2` [Example 58], the minimal effective concentration with interferon (α) (Homo sapiens, PBMC) is 3.33 µM; in assay [1] (Homo sapiens, PBMC), more than 30 µM.

With `CCCCc1nc2c(N)nc3ccccc3c2n1CCCCNS(=O)(=O)c1ccc([N+](=O)[O-])cc1` [Example 88], the minimal effective concentration in the assay with interferon (α) (Homo sapiens, PBMC) was determined as 0.01 µM; in assay [1] (Homo sapiens, PBMC), 1 µM.

Regarding `CCCCc1nc2c(N)nc3ccccc3c2n1CCNS(=O)(=O)c1ccc(Br)cc1` [Example 21], the minimal effective concentration in the assay with interferon (α) (Homo sapiens, PBMC) was determined as 1.11 µM; in assay [1] (Homo sapiens, PBMC) it was 30 µM.

In the case of `CCCCS(=O)(=O)NCCCCn1cnc2c(N)nc3ccccc3c21` [Example 13, N^1-[4-(4-Amino-1H-imidazo[4,5-c]quinolin-1-y)butyl]-1-butanesulfonamide], the minimal effective concentration is 10 µM in the assay with interferon (α) (Homo sapiens, PBMC) and more than 30 µM in assay [1] (Homo sapiens, PBMC).

For the compound `COCCc1nc2c(N)nc3ccccc3c2n1CCCCNS(=O)(=O)NC(C)(C)C` [Example 230], the minimal effective concentration with interferon (α) (Homo sapiens, PBMC) stood at 0.0001 µM; in assay [1] (Homo sapiens, PBMC) it was 1 µM.
